Tested on: eNOS promoter
Test: Activation of eNOS transcription (eNOS promoter-luciferase reporter gene assay)
Format: cell-based
Settings: human endothelial cell line stably transfected with eNOS promoter-luciferase construct; 18 h incubation; determined graphically; read-out: EC50 values of transcription induction ratios (TIR)
Method: Activation of eNOS transcription was measured as described in detail by Li et al., “Activation of protein kinase C alpha and/or epsilon enhances transcription of the human endothelial nitric oxide synthase gene”, Mol. Pharmacol. 53 (1998) 630. Briefly, a 3.5 kB long fragment 5′ of the starting codon of the eNOS gene was cloned, sequenced and cloned in firefly luciferase expression plasmids to monitor activation of the eNOS promoter by reporter gene activity. A human endothelial cell line stable transfected and expressing this promoter-reporter construct was used for compound testing. Cells were incubated for 18 h with the compounds.
All compounds were dissolved in sterile dimethyl sulfoxide (DMSO). A final concentration of 0.5% DMSO in complete medium was allowed. Induction of reporter gene expression in these cells was measured using a standard luciferase assay system (Promega, Cat. No. E150) according to the manufacturer's instructions. Luciferase induction in cells incubated with compounds were compared to those incubated with solvent alone. The ratio of both activities (transcription induction ratio, TIR) was plotted as a function of compound concentration. […] EC50 values of transcription induction ratios as a function of compound concentration were determined graphically.

| EC50 | SMILES |
| --- | --- |
| < 500 nM | Fc1ccc(-c2cn3nc(Cl)ccc3n2)cc1 [Example 8, 6-Chloro-2-(4-fluoro-phenyl)-imidazo[1,2-b]pyridazine] |
| < 500 nM | Nc1ccc2nc(-c3ccc(F)cc3)cn2n1 [Example 7, 2-(4-Fluoro-phenyl)-imidazo[1,2-b]pyridazin-6-ylamine] |

Source: patent publication US8044050B2, “Imidazo[1,2-a]azines and their use as pharmaceuticals” (Sanofi-Aventis, priority 2007, dated 2011)
